Assays:
[1] = tested on: non-transgenic soybean line A4922; experiment: Field trial of seed coatings under soil compaction / different soils, wild-type soybean; type: in vivo, Glycine max; conditions: for Count (emergence) / Height (total plant height): A4922
Experimental: The second trial (data reported in Tables 22-24) tested the precursors under conditions of soil compaction.
As noted above, the second trial tested the noted precursors under conditions of soil compaction. These experiments are performed in the same manner as in the first trial, except that the soil is compacted with an all-terrain vehicle.
“Height” equals total plant height in cm.

[2] = tested on: wild-type soybean line A3237; experiment: Experiment II second greenhouse test, seed imbibition, wild-type soybean; type: in vivo, Glycine max; conditions: 0.125 mg/ml; seeds imbibed 6 hours
Method in brief: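 Twenty seeds per treatment were imbibed 6 hours in test solutions, with dry, 1% ethanol and water-imbibed controls. Seeds were then planted and grown three weeks in the greenhouse with sub-irrigation, under 16 h light/8 h dark at 300-400 μmol m^−2 s^−1. Scoring covered dwarf, intermediate and tall plant counts, plant height, uniformity of rescue and visual effects.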

[3] = tested on: wild-type soybean line A4922; experiment: Field trial of seed coating application rates, wild-type soybean
Experimental: GA3, GA3-3-acetate, GA5, GA9, and GA12 are evaluated in further field trials. […] The objectives of these tests are: 1) to determine if seed coatings, as compared to imbibition, of GA compounds facilitate rescue of constitutively GA-deficient transgenic dwarf soybeans (transgenic lines 719−2 plus 719+17) without causing elongation of wild-type soybeans (line A4922), and 2) to determine the seed treatment rate ranges for each of the selected GA compounds that would provide rescue of constitutively GA-deficient transgenic dwarf soybeans (transgenic lines 719−2 plus 719+17) without causing elongation of wild-type soybeans (line A4922).
Seeds are treated with GA3, GA5, GA9, GA12, and GA3-3-acetate at rates of 0, 0.1, 1, 10, and 100 μg/seed. These GA compounds are applied to the seeds using a Hege 11 seed treater (Hans-Ulrich Hege GmbH & Co., Waldenburg, Germany); 100% acetone is used as the carrier solvent. The amount of liquid introduced into the seed treater is six fluid ounces/100 lbs seed rate. In addition, GA12 is tested at 50 μg/seed. The untreated control (UTC) consisted of dry, untreated seeds. Seeds of constitutively GA-deficient transgenic dwarf soybean line 719 and wild-type A4922 are sown in both light and heavy soil. The planting depth is 0.5 to 1 inch (1.27 to 2.54 cm); watering is via drip irrigation. The experiment is carried out in three repetitions, using 25 seeds/plot (one five foot (152.4 cm) long row) for line 719, and 75 seeds/plot (two eight foot (243.8 cm) rows) for line A4922. Observations included total emergence, number of dwarfs not rescued, uniformity in plant height, average plant height, visual notes, and digital photos.
In all the experiments reported in Tables 17-24, treatments are replicated three times in a randomized block design. Data are analyzed using LSD (least significant difference) 0.05 probability using the PRM 5.0 Statistical Analysis Program (SAS Institute, North Carolina).

[4] = tested on: transgenic line 719 soybean; experiment: Field trial of seed coatings under soil compaction / different soils, GA-deficient soybean; type: in vivo, Glycine max; conditions: for Count (emergence) / Dwarfs (number of dwarfs not rescued) / Dwarfs (number not rescued): Line 719
[5] = Heavy soil - loose, target rate 2.0 μg/seed, Table 22
[6] = Heavy soil - loose, target rate 8.0 μg/seed, Table 22
[7] = Light soil - Compacted, target rate 2.0 μg/seed, Table 22
[8] = Light soil - Compacted, target rate 8.0 μg/seed, Table 22
[9] = Light soil - Loose, target rate 2.0 μg/seed, Table 24
[10] = Light soil - Loose, target rate 8.0 μg/seed, Table 24
[11] = Light soil - Loose, target rate 16.0 μg/seed, Table 24
[12] = Light soil - compacted, target rate 2.0 μg/seed, Table 24
[13] = Light soil - compacted, target rate 8.0 μg/seed, Table 24
[14] = Light soil - compacted, target rate 16.0 μg/seed, Table 24

C=C1C[C@]23C[C@H]1CC[C@H]2[C@@]12CCC[C@@](C)(C(=O)O1)[C@H]2[C@@H]3C(=O)O [GA9]
Count (emergence) [1, 5]: 33 ab | Height (total plant height) [1, 5]: 5.3 g·cm·days | Count (emergence) [1, 6]: 29 a-d | Height (total plant height) [1, 6]: 6.3 cde cm | Count (emergence) [1, 7]: 38 abc | Height (total plant height) [1, 7]: 5.7 def cm | Count (emergence) [1, 8]: 22 de | Height (total plant height) [1, 8]: 6.0 de cm | Count (emergence) [1, 9]: 41.3 abc | Height (total plant height) [1, 9]: 5.0 gh cm | Count (emergence) [1, 10]: 39.3 bc | Height (total plant height) [1, 10]: 7.0 ef cm | Count (emergence) [1, 11]: 39.0 bc | Height (total plant height) [1, 11]: 8.0 de cm | Count (emergence) [1, 12]: 38.0 abc | Height (total plant height) [1, 12]: 5.7 def cm | Count (emergence) [1, 13]: 21.7 de | Height (total plant height) [1, 13]: 6.0 de cm | Count (emergence) [1, 14]: 20.0 de | Height (total plant height) [1, 14]: 8.3 c cm | emergence at approximately equivalent biological response (height) ([1]; compacted soil, FIG. 40): 93% | plant height dose/response in wild-type line A4922 (FIG. 40) ([1]; ten days after planting, compacted soil): less active than GA3, GA3-3-acetate, and GA5 | Significant Visual Observations on Line A3237 [2]: Normal height | A4922 Height, cm, Heavy soil ([3]; 0.1 μg compound per seed): 5.7 efg cm | A4922 Height, cm, Light soil ([3]; 0.1 μg compound per seed): 5.7 f-i cm | No. A4922 Emerged, Heavy soil ([3]; 0.1 μg compound per seed): 41.0 a-d | No. A4922 Emerged, Light soil ([3]; 0.1 μg compound per seed): 48.3 b-e | A4922 Height, cm, Heavy soil ([3]; 1 μg compound per seed): 6.3 efg cm | A4922 Height, cm, Light soil ([3]; 1 μg compound per seed): 6.3 fgh cm | No. A4922 Emerged, Heavy soil ([3]; 1 μg compound per seed): 43.0 a-d | No. A4922 Emerged, Light soil ([3]; 1 μg compound per seed): 46.7 c-g | A4922 Height, cm, Heavy soil ([3]; 10 μg compound per seed): 6.7 efg cm | A4922 Height, cm, Light soil ([3]; 10 μg compound per seed): 7.3 fg·cm | No. A4922 Emerged, Heavy soil ([3]; 10 μg compound per seed): 26.3 g·days | No. A4922 Emerged, Light soil ([3]; 10 μg compound per seed): 46.0 c-h | A4922 Height, cm, Heavy soil ([3]; 100 μg compound per seed): 10.3 cm·days | No. A4922 Emerged, Heavy soil ([3]; 100 μg compound per seed): 28.3 c-g | No. A4922 Emerged, Light soil ([3]; 100 μg compound per seed): 40.0 f-i | % Emergence, Heavy Soil-Loose ([4]; 3.1 μg/seed): 103% | % Emergence, Light Soil-Compact ([4]; 3.1 μg/seed): 103% | % Rescue, Heavy Soil-Loose ([4]; 3.1 μg/seed): 80% | % Rescue, Light Soil-Compact ([4]; 3.1 μg/seed): 91% | % Emergence, Heavy Soil-Loose ([4]; 4.9 μg/seed): 91% | % Emergence, Light Soil-Compact ([4]; 4.9 μg/seed): 73% | % Rescue, Heavy Soil-Loose ([4]; 4.9 μg/seed): 93% | % Rescue, Light Soil-Compact ([4]; 4.9 μg/seed): 100% | Count (emergence) [4, 5]: 42 a | Dwarfs (number of dwarfs not rescued) [4, 5]: 2.0 cde | Count (emergence) [4, 6]: 35 abc | Dwarfs (number of dwarfs not rescued) [4, 6]: 0.7 cde | Count (emergence) [4, 7]: 38 abc | Dwarfs (number of dwarfs not rescued) [4, 7]: 0.7 cd | Count (emergence) [4, 8]: 27 b-f | Dwarfs (number of dwarfs not rescued) [4, 8]: 0 days | Count (emergence) [4, 9]: 48.0 a | Dwarfs (number not rescued) [4, 9]: 2.3 e | Count (emergence) [4, 10]: 49.0 a | Dwarfs (number not rescued) [4, 10]: 0 e | Count (emergence) [4, 11]: 45.0 ab | Dwarfs (number not rescued) [4, 11]: 0 e | Count (emergence) [4, 12]: 38.3 abc | Dwarfs (number not rescued) [4, 12]: 0.7 cd | Count (emergence) [4, 13]: 27.3 b-f | Dwarfs (number not rescued) [4, 13]: 0 | Count (emergence) [4, 14]: 29.7 a-f | Dwarfs (number not rescued) [4, 14]: 0 | rank of potential for rescuing GA-deficient dwarf soybeans without decreasing emergence ([4]; based on the last two field trials): GA9>GA5>GA3-3-acetate>GA3>GA12 | best to least selectivity order ([4]; emergence under soil compaction, margin of selectivity, rescue without overelongation, Table 22): GA9>GA5>GA3-3-acetate>GA3

From patent US6723897B2, “Methods for controlling gibberellin levels” (Monsanto Technology, LLC, priority 1998, dated 2004)
